Assay [1] concerns the target RNA-directed RNA polymerase (Hepacivirus hominis, UniProt O39930). Description: Inhibition of HCV 1b NS5B delta21 RNA dependent RNA polymerase by SPA. Also on record: species or system Hepatitis C virus subtype 1b.
Another assay has as its system Hepatitis C virus. As to the kind of experiment: Inhibition of HCV RNA replication by replicon assay. In kind it is functional, organism-based, Hepacivirus hominis. The settings on record: for Activity: Hepacivirus hominis.
For a further assay, the target named is Genome polyprotein (Human poliovirus 1 Mahoney, UniProt P03300). Description: Inhibition of poliovirus RNA dependent RNA polymerase. On the set-up: species or system Enterovirus C.

Active and inactive are the calls of the source. The rule behind the calls is not given here.

RNA-directed RNA polymerase, sequence (O39930 whole entry): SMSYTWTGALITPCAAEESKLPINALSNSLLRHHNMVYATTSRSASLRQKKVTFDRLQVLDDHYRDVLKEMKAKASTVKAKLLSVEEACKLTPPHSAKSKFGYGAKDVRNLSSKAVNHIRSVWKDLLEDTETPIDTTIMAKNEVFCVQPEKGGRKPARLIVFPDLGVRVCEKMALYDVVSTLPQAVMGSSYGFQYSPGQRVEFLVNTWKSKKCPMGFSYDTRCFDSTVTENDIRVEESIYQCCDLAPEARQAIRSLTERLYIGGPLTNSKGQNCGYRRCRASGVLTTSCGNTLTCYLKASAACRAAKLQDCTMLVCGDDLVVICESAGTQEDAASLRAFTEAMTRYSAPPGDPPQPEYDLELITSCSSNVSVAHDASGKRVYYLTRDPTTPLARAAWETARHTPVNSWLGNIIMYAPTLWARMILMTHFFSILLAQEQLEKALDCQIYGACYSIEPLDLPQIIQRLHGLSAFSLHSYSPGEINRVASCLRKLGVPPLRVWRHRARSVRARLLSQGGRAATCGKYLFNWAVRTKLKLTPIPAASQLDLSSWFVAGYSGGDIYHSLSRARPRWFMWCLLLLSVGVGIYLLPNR
Genome polyprotein, sequence (P03300 1749-2209 limits assumed): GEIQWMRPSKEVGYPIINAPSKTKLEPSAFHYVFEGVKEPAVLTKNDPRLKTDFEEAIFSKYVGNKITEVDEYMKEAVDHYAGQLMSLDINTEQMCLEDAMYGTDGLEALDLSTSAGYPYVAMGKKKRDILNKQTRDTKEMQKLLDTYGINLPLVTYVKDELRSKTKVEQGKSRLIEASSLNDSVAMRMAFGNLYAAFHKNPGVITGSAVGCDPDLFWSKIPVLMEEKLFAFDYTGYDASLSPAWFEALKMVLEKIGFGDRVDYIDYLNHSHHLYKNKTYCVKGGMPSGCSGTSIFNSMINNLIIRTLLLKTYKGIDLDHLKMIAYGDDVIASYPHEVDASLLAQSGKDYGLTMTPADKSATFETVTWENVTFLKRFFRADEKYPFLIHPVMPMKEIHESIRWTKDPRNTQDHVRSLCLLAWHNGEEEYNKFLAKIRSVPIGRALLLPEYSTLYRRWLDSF

Take `Cc1c(-c2ccoc2)n(C2CCCCC2)c2ccc(C(=O)O)cc12`: inhibition in assay [1] was half-maximal at 44 nM (IC50). In addition, in the assay on Hepatitis C virus, the EC50 is over 10000 nM.
The matching figures for `Cc1c(-c2ccccn2)n(C2CCCCC2)c2ccc(C(=O)O)cc12`: 820 nM and over 10000 nM.
Molecule `O=C(O)c1ccc2c(c1)nc(-c1ccccc1)n2C1CCCCC1` displayed a half-maximal inhibitory concentration (IC50) in assay [1] of 3100 nM. For the same molecule, the outcome with Hepatitis C virus was inactive.
In the case of `COc1c(C(=O)O)ccc2c(C3CCCC3)c(-c3ccoc3)n(C)c12`, the IC50 in assay [1] came out at 340 nM. The same molecule yielded an EC50 with Hepatitis C virus of 40000 nM.
In turn, `O=C(O)c1ccc2c(c1)S(=O)(=O)C(c1ccoc1)=C2C1CCCC1` came in with an IC50 in assay [1] of over 100000 nM.
`O=C(O)c1ccc2c(c1)nc(-c1ccoc1)n2C1CCCC1`: in assay [1], inhibition was half-maximal at 2200 nM (IC50). In the assay with Hepatitis C virus, the result was inactive.
As for `Cn1c(-c2ccoc2)c(C2CCCC2)c2ccc(C(=O)O)c(Cl)c21`, the IC50 in assay [1] stood at 290 nM. In addition, the EC50 with Hepatitis C virus stood at 37000 nM.
`Cn1c(-c2ccccn2)c(C2CCCCC2)c2ccc(C(=O)O)cc21` had an IC50 in assay [1] of 90 nM. Further, the EC50 with Hepatitis C virus worked out at 3900 nM.
For the molecule `Cn1c(-c2ccoc2)c(C2CCCC2)c2ccc(C(=O)O)c(C(=O)O)c21`, the IC50 in assay [1] came out at 5300 nM.
With `COC(=O)c1c(C(=O)O)ccc2c(C3CCCC3)c(-c3ccoc3)n(C)c12`, the IC50 in assay [1] came to 480 nM. The EC50 in the assay with Hepatitis C virus is 22000 nM.
For `Cn1c(-c2ccoc2)c(C2CCCCC2)c2ccc(C(=O)O)nc21`, the IC50 in assay [1] came out at 51 nM.
With `O=C(O)c1ccc2c(C3CCCCC3)c(-c3ccccc3)[nH]c2c1`, the half-maximal inhibitory concentration (IC50) in assay [1] stood at 50 nM. The same molecule gave an EC50 in the assay with Hepatitis C virus of over 10000 nM.
As to `O=C(O)c1ccc2c(C3CCCC3)c(-c3ccoc3)[nH]c2c1`, half-maximal inhibition in assay [1] (IC50) was put at 25 nM. This molecule also had a concentration giving a half-maximal response (EC50) in the assay on Hepatitis C virus of 6600 nM.
The corresponding values for `O=C(O)c1ccc2c(C3CCCC3)c(-c3ccoc3)oc2c1` are 81 nM and 21000 nM.
With `Cn1c(-c2ccoc2)c(C2CCCCC2)c2ccc(C(=O)O)cc21`, the values for the IC50 (at Genome polyprotein; in assay [1]) were 125000 nM and 16 nM, respectively. The molecule also showed an EC50 with Hepatitis C virus of 4200 nM.
For the molecule `O=C(O)c1ccc2c(C3CCCCC3)c(-c3ccoc3)[nH]c2c1`, the values for the IC50 (against Genome polyprotein; in assay [1]) were over 125000 nM and 30 nM, respectively. Further, in the assay with Hepatitis C virus, the EC50 came out at 6700 nM.
`O=C(O)c1ccc2c(c1)nc(-c1ccccn1)n2C1CCCCC1` showed an IC50 in assay [1] of 2700 nM. Further, the result in the assay on Hepatitis C virus was inactive.
On to `Cn1c(-c2ccccc2)c(C2CCCCC2)c2ccc(C(=O)O)nc21`, for which it took 80 nM to reach half-maximal inhibition in assay [1] (IC50). Besides, the EC50 in the assay on Hepatitis C virus worked out at 2200 nM.
`O=C(O)/C=C/c1cc(-c2ccccn2)n(C2CCCCC2)n1` had an IC50 in assay [1] of over 100000 nM.
For `O=C(O)c1ccc2c(C3CCCC3)c(-c3ccoc3)sc2c1`, half-maximal inhibition in assay [1] (IC50) required 78 nM. The EC50 with Hepatitis C virus was 22000 nM.
Consider `O=C(O)c1ccc2c(c1)nc(-c1ccoc1)n2C1CCCCC1`, for which the IC50 in assay [1] worked out at 1100 nM. Besides, the outcome in the assay with Hepatitis C virus was inactive.
For the molecule `Cc1c(-c2ccccc2)n(C2CCCCC2)c2ccc(C(=O)O)cc12`, the midpoint of inhibition in assay [1], the IC50, lay at 180 nM. The EC50 in the assay with Hepatitis C virus is over 10000 nM.
The corresponding values for `Cn1c(-c2ccoc2)c(C2CCCC2)c2ccc(C(=O)O)cc21` are 21 nM and 6600 nM.
The corresponding values for `Cn1c(-c2ccccc2)c(C2CCCCC2)c2ccc(C(=O)O)cc21` are 30 nM and 6600 nM.
In assay [1], `O=C(O)c1ccc2c(C3CCCCC3)c(-c3ccccn3)[nH]c2c1` showed an IC50 of 230 nM. This molecule also registered a half-maximal effective concentration (EC50) in the assay with Hepatitis C virus of over 10000 nM.
The corresponding values for `Cn1c(-c2ccoc2)c(C2CCCC2)c2ccc(C(=O)O)c(O)c21` are 75 nM and 19000 nM.
`O=C(O)/C=C/c1cc(C2CCCCC2)c(-c2ccccn2)[nH]1`: the IC50 in assay [1] was over 50000 nM.

These data come from ChEMBL document CHEMBL1146881, “Improved replicon cellular activity of non-nucleoside allosteric inhibitors of HCV NS5B polymerase: from benzimidazole to indole scaffolds” (Bioorg Med Chem Lett, 2006).
